PMC2248166, “Quantitative peptide binding motifs for 19 human and mouse MHC class I molecules derived using positional scanning combinatorial peptide libraries” (Immunome Research, 2008)

Assays:
HLA A*3001 = HLA A*3001 (Homo sapiens, UniProt P04439, D140H/D185E/E176W/F33S/G80R/H175R/K168Q/R138E/R41S); assay: biochemical; type: binding
HLA A*3201 = HLA A*3201 (Homo sapiens, UniProt P04439, A270S/D101S/D185E/E176V/E277Q/F133L/G103R/G107R/G231S/H175R/I121M/I218V/I322F/K168Q/L105A/L300P/L318F/M331R/P208A/P217A/Q94H/R106L/R138Q/S129P/T104I/T323A/T345S/V100E/V321M/V358M); assay: biochemical; type: binding
HLA A*6802 = HLA A*6802 (Homo sapiens, UniProt P04439, A269V/D140Y/D185E/E176V/E277Q/E87N/F33Y/G231S/I121R/I166T/I218V/L180W/L300P/L318F/N151K/P208A/P217A/Q86R/R138H/R169H/S129P/T345S/V36M); type: binding
HLA B*0702 = HLA B*0702 (Homo sapiens, UniProt P01889); type: binding; details: positional scanning combinatorial 9-mer library; normalized to 1.0 for the best residue at each position
HLA B*0801 = HLA B*0801 (Homo sapiens, UniProt P01889, A93T/A95T/D138N/E176V/E187T/K202T/Q94N/R180D/S35A/V36M/Y33D/Y91F); assay: biochemical; type: binding
HLA B*1501 = HLA B*1501 (Homo sapiens, UniProt P01889, A329T/A93T/A95T/C349S/D201E/D98Y/E187L/E204Q/E69M/E70A/K202T/N87E/Q94N/R155S/R180W/S121R/S35A/S48A/V306I/V36M/Y140S/Y91S); assay: biochemical; type: binding
HLA B*1503 = HLA B*1503 (Homo sapiens, UniProt P01889, A329T/A93T/A95T/C349S/D201E/D98Y/E187L/E204Q/K202T/N87E/Q94N/R155S/R180L/S121R/S35A/V306I/V36M/Y140S/Y91S); assay: biochemical; type: binding
HLA B*2705 = HLA B*2705 (Homo sapiens, UniProt P01889, D138H/D201E/E176V/E204Q/G107R/H137Y/K202T/N104T/N87E/Q56L/Q94K/R106L/R155S/R180L/S101D/S121N/S48T/Y140D/Y33H/Y91C); type: binding; details: positional scanning combinatorial 9-mer library; normalized to 1.0 for the best residue at each position
HLA B*3501 = HLA B*3501 (Homo sapiens, UniProt P01889, A329T/A93T/A95T/C349S/D201E/D98Y/E176V/E187L/E204Q/E69T/I218V/K202T/L119I/Q94N/R155S/R180L/S121R/S35A/S48A/T118I/V127L/V306I/V36M/Y140S/Y91F); type: binding
HLA B*5101 = HLA B*5101 (Homo sapiens, UniProt P01889, A329T/A93T/A95T/C349S/D138N/D201E/D98Y/E187L/E204Q/E69T/G107R/I218V/K202T/L105A/L119W/N104I/Q94N/R106L/R155S/R180L/S101N/S121T/S35A/S48A/V306I/V36M/Y195H/Y91F); type: binding
HLA B*5301 = HLA B*5301 (Homo sapiens, UniProt P01889, A329T/A93T/A95T/C349S/D201E/D98Y/E176V/E187L/E204Q/E69T/G107R/I218V/K202T/L105A/L119I/N104I/Q94N/R106L/R155S/R180L/S101N/S121R/S35A/S48A/T118I/V127L/V306I/V36M/Y140S/Y91F); type: binding
HLA B*5401 = HLA B*5401 (Homo sapiens, UniProt P01889, A329T/C349S/D138N/D201E/E176V/E187T/E204Q/E69G/I76V/K202T/L119W/R155S/R180L/S121T/S35A/S48A/V127L/V306I/V36M/Y140L); type: binding
HLA B*5801 = HLA B*5801 (Homo sapiens, UniProt P01889, A329T/C349S/D201E/D98Y/E176V/E187L/E204Q/E69T/G107R/I218V/I90N/K202T/L105A/L119I/N104I/N87E/Q89R/Q94S/R106L/R155S/R180L/R86G/S101N/S121R/S35A/S48A/T118I/V127L/V306I/V36M/Y140S/Y91M); type: binding
HLA B*5802 = HLA B*5802 (Homo sapiens, UniProt P01889, A329T/C349S/D201E/D98Y/E176V/E187L/E204Q/E69T/G107R/I218V/I90N/K202T/L105A/N104I/N87E/Q89R/Q94S/R106L/R155S/R180L/R86G/S101N/S121W/S35A/S48A/V127L/V306I/V36M/Y140S/Y91M); type: binding
H-2 D^b = H-2 D^b (Mus musculus, UniProt P01899); type: binding
H-2 D^d = H-2 D^d (Mus musculus, UniProt P01900); type: binding
H-2 K^k = H-2 K^k (Mus musculus, UniProt P04223); type: binding
HLA A*0201 = HLA A*0201 (Homo sapiens, UniProt P04439, D140Y/D185E/D98H/E176V/E277Q/G131W/G231S/I119V/I121R/I166T/I218V/L300P/L318F/N151K/N90K/P208A/P217A/Q86G/Q94H/R138H/R169H/T345S); details: positional scanning combinatorial 9-mer library; normalized to 1.0 for the best residue at each position

Sequence of H-2 K^k (P01887 21-119): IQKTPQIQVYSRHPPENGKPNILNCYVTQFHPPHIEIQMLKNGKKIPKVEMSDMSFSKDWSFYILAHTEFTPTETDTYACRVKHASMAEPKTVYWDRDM
Sequence of H-2 K^k (P04223 22-369): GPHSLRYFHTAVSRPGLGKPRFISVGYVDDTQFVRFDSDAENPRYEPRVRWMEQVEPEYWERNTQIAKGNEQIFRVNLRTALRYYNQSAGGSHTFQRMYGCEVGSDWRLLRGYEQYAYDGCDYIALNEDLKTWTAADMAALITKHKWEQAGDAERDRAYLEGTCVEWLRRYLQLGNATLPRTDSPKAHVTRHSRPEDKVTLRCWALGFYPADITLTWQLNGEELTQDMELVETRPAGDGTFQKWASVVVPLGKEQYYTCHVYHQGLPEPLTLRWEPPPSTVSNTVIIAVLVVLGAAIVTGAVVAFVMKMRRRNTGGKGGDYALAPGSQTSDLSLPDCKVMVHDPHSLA
Sequence of H-2 D^b (P01887 21-119): as the sequence (P01887 21-119) above
Sequence of H-2 D^b (P01899 25-362): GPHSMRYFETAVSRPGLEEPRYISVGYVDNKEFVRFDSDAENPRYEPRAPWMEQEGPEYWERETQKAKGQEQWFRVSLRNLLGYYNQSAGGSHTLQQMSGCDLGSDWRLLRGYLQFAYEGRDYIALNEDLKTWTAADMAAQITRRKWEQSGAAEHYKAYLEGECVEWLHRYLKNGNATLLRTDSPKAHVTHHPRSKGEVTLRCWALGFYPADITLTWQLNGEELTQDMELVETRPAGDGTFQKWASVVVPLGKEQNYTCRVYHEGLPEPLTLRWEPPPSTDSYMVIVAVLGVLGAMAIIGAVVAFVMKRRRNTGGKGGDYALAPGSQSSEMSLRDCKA
Sequence of H-2 D^d (P01900 whole entry, looked up): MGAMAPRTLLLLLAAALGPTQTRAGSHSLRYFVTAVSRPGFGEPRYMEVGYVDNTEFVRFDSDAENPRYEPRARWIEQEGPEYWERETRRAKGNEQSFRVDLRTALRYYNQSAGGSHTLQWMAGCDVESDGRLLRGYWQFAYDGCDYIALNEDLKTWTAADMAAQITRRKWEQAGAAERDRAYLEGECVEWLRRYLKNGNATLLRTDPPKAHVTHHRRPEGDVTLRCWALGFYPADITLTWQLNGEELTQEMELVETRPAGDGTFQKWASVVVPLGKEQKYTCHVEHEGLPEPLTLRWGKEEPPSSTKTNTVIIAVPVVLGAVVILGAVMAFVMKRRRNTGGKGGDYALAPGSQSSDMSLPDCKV

| Sequence | Normalized average relative binding affinity (ARB), HLA A*3001 (HLA A*3001) | Normalized average relative binding affinity (ARB), HLA A*3201 (HLA A*3201) | Normalized average relative binding affinity (ARB), HLA A*6802 (HLA A*6802) | Normalized average relative binding affinity (ARB), HLA B*0702 (HLA B*0702) | Normalized average relative binding affinity (ARB), HLA B*0801 (HLA B*0801) | Normalized average relative binding affinity (ARB), HLA B*1501 (HLA B*1501) | Normalized average relative binding affinity (ARB), HLA B*1503 (HLA B*1503) | Normalized average relative binding affinity (ARB), HLA B*2705 (HLA B*2705) | Normalized average relative binding affinity (ARB), HLA B*3501 (HLA B*3501) | Normalized average relative binding affinity (ARB), HLA B*5101 (HLA B*5101) | Normalized average relative binding affinity (ARB), HLA B*5301 (HLA B*5301) | Normalized average relative binding affinity (ARB), HLA B*5401 (HLA B*5401) | Normalized average relative binding affinity (ARB), HLA B*5801 (HLA B*5801) | Normalized average relative binding affinity (ARB), HLA B*5802 (HLA B*5802) | Normalized average relative binding affinity (ARB), H-2 Db (H-2 D^b) | Normalized average relative binding affinity (ARB), H-2 Dd (H-2 D^d) | Normalized average relative binding affinity (ARB), H-2 Kk (H-2 K^k) | Normalized average relative binding affinity (ARB), HLA A*0201 (HLA A*0201) |
| --- | --- | --- | --- | --- | --- | --- | --- | --- | --- | --- | --- | --- | --- | --- | --- | --- | --- | --- |
| XAXXXXXXX [3064.0021] | 0.89 | 0.11 | 0.12 | 0.086 | 0.41 | 0.57 | 0.13 | 0.0054 | 0.88 | 0.54 | 0.44 | 1.0 | 0.48 | 0.035 | 0.64 | 0.025 | 0.047 | 0.0018 |
| XCXXXXXXX [3064.0022] | 0.15 | 0.028 | 0.0076 | 0.0028 | 0.028 | 0.027 | 0.0028 | 0.0016 | 0.067 | 0.079 | 0.019 | 0.0051 | 0.013 | 0.051 | 0.22 | 0.013 | 0.010 | 0.0016 |
| XDXXXXXXX [3064.0023] | 0.012 | 0.025 | 0.0075 | 0.0029 | 0.014 | 0.0094 | 0.0054 | 0.0016 | 0.018 | 0.022 | 0.0088 | 0.0009 | 0.0033 | 0.030 | 0.036 | 0.013 | 0.13 | 0.0016 |
